The nature of assay [1]: Chick growth performance test (weight gain, feed efficiency). It counts as in vivo, chicks. To be noted: Table XIII; for Weight Gain Amt.: chicks 7-14 days of age; for Feed/Gain % Impr. / Weight Gain % Impr.: relative to the control mean. The source says:
In the tests, the compounds were given to chicks at the concentrations indicated in the feed. The test period was the 7-day period from 7-14 days of age of the birds. Growth performance (weight gain, feed consumption and feed efficiency) was compared to that of contemporary controls.

The test system of assay [2] is Staphylococcus epidermidis EPI1. The assay can be described thus: MIC, conventional agar-dilution assay. It is filed as cell-based. The method, then:
(§1) The A54145 antibiotics inhibit the growth of pathogenic bacteria. […] The MIC's in Table IX were determined by conventional agar-dilution assays.

Assay [3] has as its system Streptococcus sp. group D X66. Briefly: MIC, conventional agar-dilution assay. It is filed as cell-based. The method, then:
as §1

Assay [4] concerns Staphylococcus aureus V41. The assay can be described thus: MIC, conventional agar-dilution assay. It is filed as cell-based. How it is done: as §1
Assay [5] relates to Streptococcus pyogenes C203. Briefly: MIC, conventional agar-dilution assay. It counts as cell-based. How it is done:
as §1

The test system of assay [6] is Staphylococcus epidermidis 222. The assay can be described thus: MIC, conventional agar-dilution assay. It is filed as cell-based. The method, then:
as §1

Assay [7] relates to Streptococcus sp. group 2041. Briefly: MIC, conventional agar-dilution assay. It is filed as cell-based. How it is done:
as §1

The test system of assay [8] is Staphylococcus aureus X400. Briefly: MIC, conventional agar-dilution assay. It is filed as cell-based. The method, then:
as §1

The test system of assay [9] is Staphylococcus aureus S13E. The assay can be described thus: MIC, conventional agar-dilution assay. It is filed as cell-based. The method, then: as §1
In assay [10] the test system is Streptococcus pneumoniae Park1. The assay can be described thus: MIC, conventional agar-dilution assay. It is filed as cell-based. The method, then:
as §1

Assay [11] relates to Staphylococcus aureus X1.1. The assay can be described thus: MIC, conventional agar-dilution assay. It counts as cell-based. The method, then: as §1
The subject of assay [12] is Streptomyces fradiae A54145.1, A54145.2 and A54145.3. The assay can be described thus: Resistance to antibiotics, sensitivity discs on seeded ISP No. 2 agar plates. The note with it: identical for A54145.1, A54145.2, A54145.3; lincomycin 2 μg, penicillin G 10 units, bacitracin 10 units, cephalothin 30 μg, gentamicin 10 μg, neomycin 30 μg, oleandomycin 15 μg, rifampin 5 μg, streptomycin 10 μg, tetracycline 30 μg, tobramycin 10 μg, vancomycin 30 μg.
Procedure: Resistance to antibiotics was measured by padding antibiotic sensitivity discs onto the surface of seeded ISP No. 2 agar plates.

Converted amounts (≈) assume the structure as drawn. Starred links: 1 amine or outer side, 2 acyl side, 3 side chain; linkers in the order of their positions; H or OH if unused. Positions of bridges follow the written chain, without caps; N, C: chain ends. Non-standard residues stand in square brackets, D forms with d. Residues, ends and D or L forms follow the SMILES beside them. ξ: configuration not given here. *: point of attachment. Ileψ(thiazoline)Cys = CC[C@H](C)[C@H](N)C1=N[C@H](C(=O)*)CS1; ξAsp(3ξ-OMe) = COC(C(=O)O)C(N)C(=O)O; X1 = CC(CC(=O)O)C(N[*:1])C(=O)[*:2]; ξAsn(3ξ-OH) = NC(=O)C(O)C(N)C(=O)O; dOrn = NCCC[C@@H](N)C(=O)O; X3 = CCC(C)CCCCCCC(=O)*; X2 = CC(C)CCCCCCC(=O)*; Sar = CNCC(=O)O

`CCC(C)C1NC(=O)C(C(C)CC(=O)O)NC(=O)C(CC(N)=O)NC(=O)CNC(=O)C(C(OC)C(=O)O)NC(=O)C(CCCCN)NC(=O)C(CC(=O)O)NC(=O)C(C)NC(=O)CN(C)C(=O)C(NC(=O)C(NC(=O)C(CCC(=O)O)NC(=O)C(Cc2c[nH]c3ccccc23)NC(=O)CCCCCCC(C)C)C(O)C(N)=O)C(C)OC1=O` (centres unmarked) [Component A54145B1] (X2-WE[ξAsn(3ξ-OH)]T[Sar]ADK[ξAsp(3ξ-OMe)]GN[X1]I; ester 4-C; configuration not given here): the “Feed/Gain Ratio” value is reported as 1.906 in [1] (5 g/ton), 1.860 in assay [1] (10 g/ton) and 1.686 in assay [1] (20 g/ton). Further, the “Weight Gain Amt.” value is 326 g in assay [1] (5 g/ton in feed), 358 g in [1] (10 g/ton in feed) and 448 g in [1] (20 g/ton in feed). The “Feed/Gain % Impr.” value in assay [1] (5 g/ton) came out at 5.3%; in assay [1] (10 g/ton) it was 7.4%; in assay [1] (20 g/ton), 16.2%. Further, the “Weight Gain % Impr.” value in [1] (5 g/ton) stood at 3.5%; in assay [1] (10 g/ton), 13.7%; in assay [1] (20 g/ton) it was 42.2%. Also, the minimal inhibitory concentration (MIC) in assay [2] turned out to be 1 µg/mL (≈ 0.603 µM); in assay [3], 8 µg/mL (≈ 4.82 µM); in assay [4], 2 µg/mL (≈ 1.21 µM); in assay [5], 0.5 µg/mL (≈ 0.301 µM); in assay [6], 1 µg/mL (≈ 0.603 µM); in assay [7] it was 32 µg/mL (≈ 19.3 µM). Also, the MIC in assay [8], in assay [9], in [10] and in assay [11] was 2 µg/mL (≈ 1.21 µM) throughout.

In the case of `CCC(C)CCCCCCC(=O)NC(Cc1c[nH]c2ccccc12)C(=O)NC(CCC(=O)O)C(=O)NC(C(=O)NC1C(=O)N(C)CC(=O)NC(C)C(=O)NC(CC(=O)O)C(=O)NC(CCCCN)C(=O)NC(C(OC)C(=O)O)C(=O)NCC(=O)NC(CC(N)=O)C(=O)NC(C(C)CC(=O)O)C(=O)NC(C(C)C)C(=O)OC1C)C(O)C(N)=O` (centres unmarked) [Component A54145C] (X3-WE[ξAsn(3ξ-OH)]T[Sar]ADK[ξAsp(3ξ-OMe)]GN[X1]V; ester 4-C; configuration not given here), the MIC in assay [2] was 2 µg/mL (≈ 1.21 µM); in [3], 4 µg/mL (≈ 2.41 µM); in assay [4], 2 µg/mL (≈ 1.21 µM); in assay [5], 0.5 µg/mL (≈ 0.301 µM); in assay [6] it was 1 µg/mL (≈ 0.603 µM); in [7] it was 4 µg/mL (≈ 2.41 µM). Moreover, the MIC in assay [8], in [9], in assay [10] and in assay [11] was 2 µg/mL (≈ 1.21 µM) throughout.

Turning to `CCC(C)CCCCCCC(=O)NC(Cc1c[nH]c2ccccc12)C(=O)NC(CCC(=O)O)C(=O)NC(C(=O)NC1C(=O)N(C)CC(=O)NC(C)C(=O)NC(CC(=O)O)C(=O)NC(CCCCN)C(=O)NC(C(OC)C(=O)O)C(=O)NCC(=O)NC(CC(N)=O)C(=O)NC(CCC(=O)O)C(=O)NC(C(C)CC)C(=O)OC1C)C(O)C(N)=O` (centres unmarked) [Component A54145D] (X3-WE[ξAsn(3ξ-OH)]T[Sar]ADK[ξAsp(3ξ-OMe)]GNEI; ester 4-C; configuration not given here), the MIC came to 2 µg/mL (≈ 1.21 µM) in assay [2]; 4 µg/mL (≈ 2.41 µM) in assay [3]; 4 µg/mL (≈ 2.41 µM) in assay [4]; 0.5 µg/mL (≈ 0.301 µM) in assay [5]; 2 µg/mL (≈ 1.21 µM) in [6]; 32 µg/mL (≈ 19.3 µM) in [7]. In addition, the MIC in [8], in assay [9], in assay [10] and in assay [11] was 4 µg/mL (≈ 2.41 µM) each time.

As to `CCC(C)CCCCCCC(=O)NC(Cc1c[nH]c2ccccc12)C(=O)NC(CCC(=O)O)C(=O)NC(C(=O)NC1C(=O)N(C)CC(=O)NC(C)C(=O)NC(CC(=O)O)C(=O)NC(CCCCN)C(=O)NC(C(OC)C(=O)O)C(=O)NCC(=O)NC(CC(N)=O)C(=O)NC(C(C)CC(=O)O)C(=O)NC(C(C)CC)C(=O)OC1C)C(O)C(N)=O` (centres unmarked) [Component A54145E] (X3-WE[ξAsn(3ξ-OH)]T[Sar]ADK[ξAsp(3ξ-OMe)]GN[X1]I; ester 4-C; configuration not given here), the MIC turned out to be 1 µg/mL (≈ 0.598 µM) in [2]; 2 µg/mL (≈ 1.2 µM) in [3]; 2 µg/mL (≈ 1.2 µM) in assay [4]; 0.25 µg/mL (≈ 0.149 µM) in assay [5]; 1 µg/mL (≈ 0.598 µM) in assay [6]; 4 µg/mL (≈ 2.39 µM) in [7]. Further, the MIC in assay [8] worked out at 2 µg/mL (≈ 1.2 µM); in assay [9], 2 µg/mL (≈ 1.2 µM); in assay [10] it was 1 µg/mL (≈ 0.598 µM); in [11], 1 µg/mL (≈ 0.598 µM).

`COC(C(=O)O)C1NC(=O)C(CCCCN)NC(=O)C(CC(=O)O)NC(=O)C(C)NC(=O)CN(C)C(=O)C(NC(=O)C(NC(=O)C(CCC(=O)O)NC(=O)C(Cc2c[nH]c3ccccc23)NC(=O)CCCCCCC(C)C)C(O)C(N)=O)C(C)OC(=O)C(C(C)C)NC(=O)C(CCC(=O)O)NC(=O)C(CC(N)=O)NC(=O)CNC1=O` (centres unmarked) [Component A54145F] (X2-WE[ξAsn(3ξ-OH)]T[Sar]ADK[ξAsp(3ξ-OMe)]GNEV; ester 4-C; configuration not given here): the MIC in [2] was 16 µg/mL (≈ 9.81 µM); in assay [3], 16 µg/mL (≈ 9.81 µM); in assay [4], 16 µg/mL (≈ 9.81 µM); in [5], 4 µg/mL (≈ 2.45 µM); in assay [6], 8 µg/mL (≈ 4.91 µM); in assay [7], more than 32 µg/mL. The MIC in [8] worked out at 16 µg/mL (≈ 9.81 µM); in assay [9], 16 µg/mL (≈ 9.81 µM); in [10], 8 µg/mL (≈ 4.91 µM); in [11], 16 µg/mL (≈ 9.81 µM).

`CC[C@H](C)[C@H](N)C1=N[C@H](C(=O)N[C@@H](CC(C)C)C(=O)N[C@H](CCC(=O)O)C(=O)N[C@H](C(=O)N[C@H]2CCCCNC(=O)[C@H](CC(N)=O)NC(=O)[C@@H](CC(=O)O)NC(=O)[C@H](Cc3cnc[nH]3)NC(=O)[C@@H](Cc3ccccc3)NC(=O)[C@H]([C@@H](C)CC)NC(=O)[C@@H](CCCN)NC2=O)[C@@H](C)CC)CS1` [bacitracin] ({Ileψ(thiazoline)Cys}-L[dE]IK[dOrn]I[dF]H[dD]N; lactam 4-C): the “resistance or sensitivity of the strains to antibiotic discs” value (from here on “resistance or sensitivity of the strains”) in assay [12] was “sensitive”.

Turning to `CC(=O)OCC1=C(C(=O)O)N2C(=O)[C@@H](NC(=O)Cc3cccs3)[C@H]2SC1` [cephalothin], the “resistance or sensitivity of the strains” value in assay [12] is “sensitive”.

As to `CCC[C@@H]1C[C@@H](C(=O)N[C@@H]([C@H]2O[C@H](SC)[C@H](O)[C@@H](O)[C@H]2O)[C@@H](C)O)N(C)C1` [lincomycin], the “resistance or sensitivity of the strains” value in assay [12] is reported as “resistant”.

As to `CO[C@H]1C[C@H](O[C@H]2[C@H](C)[C@@H](O[C@@H]3O[C@H](C)C[C@H](N(C)C)[C@H]3O)[C@@H](C)C[C@@]3(CO3)C(=O)[C@H](C)[C@@H](O)[C@@H](C)[C@@H](C)OC(=O)[C@@H]2C)O[C@@H](C)[C@@H]1O` [oleandomycin], the “resistance or sensitivity of the strains” value in assay [12] is on record as “sensitive”.

For the molecule `CC1(C)S[C@@H]2[C@H](NC(=O)Cc3ccccc3)C(=O)N2[C@H]1C(=O)O` [penicillin G], in [12], the “resistance or sensitivity of the strains” value was “resistant”.

As to `CO[C@H]1/C=C/O[C@@]2(C)Oc3c(C)c(O)c4c(O)c(c(/C=N/N5CCN(C)CC5)c(O)c4c3C2=O)NC(=O)/C(C)=C\C=C\[C@H](C)[C@H](O)[C@@H](C)[C@@H](O)[C@@H](C)[C@H](OC(C)=O)[C@@H]1C` [rifampin], the “resistance or sensitivity of the strains” value in assay [12] is recorded as “sensitive”.

For `[H]/N=C(/N)N[C@H]1[C@H](O)[C@@H](O)[C@H](O[C@@H]2O[C@@H](C)[C@](O)(C=O)[C@H]2O[C@@H]2O[C@@H](CO)[C@H](O)[C@@H](O)[C@@H]2NC)[C@@H](N/C(N)=N\[H])[C@@H]1O` [streptomycin], in assay [12], the “resistance or sensitivity of the strains” value is listed as “sensitive”.

`CN(C)[C@@H]1C(O)=C(C(N)=O)C(=O)[C@@]2(O)C(O)=C3C(=O)c4c(O)cccc4[C@@](C)(O)[C@H]3C[C@@H]12` [tetracycline]: in assay [12], the “resistance or sensitivity of the strains” value was “sensitive”.

For the molecule `NC[C@H]1O[C@H](O[C@H]2[C@H](O)[C@@H](O[C@H]3O[C@H](CO)[C@@H](O)[C@H](N)[C@H]3O)[C@H](N)C[C@@H]2N)[C@H](N)C[C@@H]1O` [tobramycin], in assay [12], the “resistance or sensitivity of the strains” value is recorded as “sensitive”.

For the molecule `CN[C@H](CC(C)C)C(=O)N[C@H]1C(=O)N[C@@H](CC(N)=O)C(=O)N[C@H]2C(=O)N[C@H]3C(=O)N[C@H](C(=O)N[C@H](C(=O)O)c4cc(O)cc(O)c4-c4cc3ccc4O)[C@H](O)c3ccc(c(Cl)c3)Oc3cc2cc(c3O[C@@H]2O[C@H](CO)[C@@H](O)[C@H](O)[C@H]2O[C@H]2C[C@](C)(N)[C@H](O)[C@H](C)O2)Oc2ccc(cc2Cl)[C@H]1O` [vancomycin], the “resistance or sensitivity of the strains” value in assay [12] is recorded as “sensitive”.

Take gentamicin: the “resistance or sensitivity of the strains” value in [12] is given as “sensitive”.

For the molecule neomycin, the “resistance or sensitivity of the strains” value in assay [12] is listed as “sensitive”.

A word on the MIC: it is the least concentration at which growth counts as inhibited.

These data come from patent US4994270A, “A54145 antibiotics and process for their production” (Eli Lilly and Company, priority 1988, dated 1991).
